Literature values in patent US12502395B2, “Progestin/testosterone transdermal gel” (The Population Council, Inc., priority 2022, dated 2025).

Columns and labels:
[1] = tested on: androgenic, estrogenic, or glucocorticoid actions; conditions: at up to x2000 the therapeutic levels
[2] = most common adverse event; 100 mg/day of T
pregnancy = conditions: weekly intramuscular injection of 200 mg/week for 12 months

## C=C1C[C@H]2[C@@H]3CCC4=CC(=O)CC[C@@H]4[C@H]3CC[C@]2(C)[C@@]1(OC(C)=O)C(C)=O [NES, 16-methylene-17α-acetoxy-19-norpregn-4-ene-3,20-dione]
[1]
  Androgenic, estrogenic, or glucocorticoid actions: does not carry androgenic, estrogenic, or glucocorticoid actions

## C[C@]12CC[C@H]3[C@@H](CCC4=CC(=O)CC[C@@]43C)[C@@H]1CC[C@@H]2O [T, Testosterone]
[2]
  Acne, % of subjects: 21%

## CCCCCCC(=O)O[C@H]1CC[C@H]2[C@@H]3CCC4=CC(=O)CC[C@]4(C)[C@H]3CC[C@]12C [testosterone enanthate]
pregnancy
  Pregnancy rate: 0.8 pregnancy per 100 person-years of exposure
